As usually defined, the Ki is the dissociation constant of the complex between target and ligand, obtained from inhibition or displacement. Lower therefore signals a stronger hold on the target.

Drawing on ChEMBL document CHEMBL4118231, “Pyrroloquinoline scaffold-based 5-HT6R ligands: Synthesis, quantum chemical and molecular dynamic studies, and influence of nitrogen atom position in the scaffold on affinity” (Bioorg Med Chem, 2018), this text covers Ki for nine molecules.

Structures are written as SMILES.

This assay has as its target 5-hydroxytryptamine receptor 6 (Homo sapiens, UniProt P50406). The assay can be described thus: Displacement of [3H]LSD from human 5-HT6R expressed in HEK293 cell membranes after 1 hr by microbeta counting method.

Chain of 5-hydroxytryptamine receptor 6 (P50406 whole entry): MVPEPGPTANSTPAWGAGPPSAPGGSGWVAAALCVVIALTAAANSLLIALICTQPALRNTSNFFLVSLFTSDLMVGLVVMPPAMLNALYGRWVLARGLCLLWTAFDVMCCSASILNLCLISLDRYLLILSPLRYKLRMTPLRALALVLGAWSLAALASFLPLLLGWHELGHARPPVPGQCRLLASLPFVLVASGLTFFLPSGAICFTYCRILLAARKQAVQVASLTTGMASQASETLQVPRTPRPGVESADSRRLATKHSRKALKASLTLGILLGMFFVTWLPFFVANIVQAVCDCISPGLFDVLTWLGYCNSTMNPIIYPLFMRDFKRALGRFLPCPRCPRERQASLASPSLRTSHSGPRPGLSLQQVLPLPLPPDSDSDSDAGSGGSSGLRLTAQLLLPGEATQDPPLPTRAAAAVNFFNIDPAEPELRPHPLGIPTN

As for `O=S(=O)(c1cccc(Cl)c1)n1cc(C2=CCNCC2)c2ccc3cccnc3c21`, the Ki was 49 nM. The same measure for `O=S(=O)(c1cccc(F)c1)n1cc(C2=CCNCC2)c2ccc3ncccc3c21`: 365 nM. Under `O=S(=O)(c1cccc(Br)c1)n1cc(C2=CCNCC2)c2ccc3ncccc3c21` stands 137 nM. `O=S(=O)(c1ccccc1)n1cc(C2=CCNCC2)c2ccc3cccnc3c21` gave an inhibitory constant (Ki) of 131 nM. Under `O=S(=O)(c1cccc(Br)c1)n1cc(C2=CCNCC2)c2ccc3cccnc3c21` stands 61 nM. The same measure for `O=S(=O)(c1ccccc1)n1cc(C2=CCNCC2)c2ccc3ncccc3c21`: 711 nM; for `O=S(=O)(c1cccc(Cl)c1)n1cc(C2=CCNCC2)c2ccc3ncccc3c21`: 427 nM; for `O=S(=O)(c1cccc(F)c1)n1cc(C2=CCNCC2)c2ccc3cccnc3c21`: 45 nM.

For `Clc1cccc(Cn2cc(C3=CCNCC3)c3ccc4cccnc4c32)c1`, the Ki stood at 269 nM.
